The structures appear in SMILES notation.

In data set [1] the test system is skin. Kind of data set: Tanning effect of MSM additions to DHA formulas or accelerators. The data set is classed as in vivo, human. The source says:
Applicant has conducted experiments with a typical oil-in-water self tanning cream containing DHA as the self tanning agent with or without the inclusion of MSM. […] Applicant also conducted experiments with DHA containing self-tanning liquid mousse compositions, with and without MSM.

Data set [2] is described as follows: Solubility of MSM in water. The data set is classed as physicochemical. The note with it: by weight.

As for `CS(C)(=O)=O` [MSM, methylsulfonyl methane], the tanning effect result in data set [1] (0.1% addition of MSM) was “ineffective”; in data set [1] (addition of 5% MSM to DHA formulas, with or without soluble dyes), “enhances tanning effect producing a more intense hue that lasts longer”. Further, the “solubility of MSM in water” value in data set [2] is ~20%.

The values above are taken from US6706257B1, “Sunless tanning products and processes” (Discovery Partners, LLC, priority 2001, dated 2004).
